Measurements reported in patent publication EP0000816A1, “Substituted amino-pyridine derivatives, processes for their preparation and pharmaceutical compositions containing them” (BEECHAM GROUP PLC, priority 1977, dated 1979).

Test system: male albino rats (C.F.Y. strain)
Experiment: Hypolipidaemic assay: serum total cholesterol and triglyceride in rats given compound in diet
Assay type: in vivo
Conditions: 0.1% in diet for seven days; for % Cholesterol Lowering: serum total cholesterol compared with controls; for % Triglyceride Lowering: serum triglyceride compared with controls
Description: Groups of 8 male albino rats (C.F.Y. strain), weighing approximately 150 g., were given a powdered commercially available diet (oxoid) to which compounds were added at level of 0.1%. These diets were fed for seven days. The rats were then killed and their serum total cholesterol and triglyceride were measured by the Technicon Autoanalyser.

SMILES	% Cholesterol Lowering [%]	% Triglyceride Lowering [%]
O=C(O)c1ccc(NCCCc2ccccc2)nc1	16	38
O=C(O)c1ccc(NCc2ccccc2)nc1	34	30
